Measured values: PubChem BioAssay (NCI)
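Where inhibition never reached the appropriate level, the endpoint shown equals the highest concentration tested. Otherwise, values were interpolated linearly from a five-concentration, 48-hour dose response in 96-well plates. TGI: total growth inhibition.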

Key:
Assay in all cases: NCI tumour cell line growth inhibition, 48 h
[1] = tested on: 786-0 renal
[2] = tested on: A498 renal
[3] = tested on: A549 NSCLC
[4] = tested on: ACHN renal
[5] = tested on: BT-549 breast
[6] = tested on: CAKI-1 renal
[7] = tested on: CCRF-CEM leukemia
[8] = tested on: COLO 205 colon
[9] = tested on: DU-145 prostate
[10] = tested on: EKVX NSCLC
[11] = tested on: HCC-2998 colon
[12] = tested on: HCT-116 colon
[13] = tested on: HCT-15 colon
[14] = tested on: HL-60(TB) leukemia
[15] = tested on: HOP-62 NSCLC
[16] = tested on: HOP-92 NSCLC
[17] = tested on: HS 578T breast
[18] = tested on: HT29 colon
[19] = tested on: IGROV1 ovarian
[20] = tested on: K-562 leukemia
[21] = tested on: KM12 colon
[22] = tested on: LOX IMVI melanoma
[23] = tested on: M14 melanoma
[24] = tested on: MALME-3M melanoma
[25] = tested on: MCF7 breast
[26] = tested on: MDA-MB-231 breast
[27] = tested on: MDA-MB-435
[28] = tested on: MDA-N
[29] = tested on: MOLT-4 leukemia
[30] = tested on: NCI-H226 lung
[31] = tested on: NCI-H23 lung
[32] = tested on: NCI-H460 lung
[33] = tested on: NCI-H522 lung
[34] = tested on: NCI/ADR-RES ovarian
[35] = tested on: OVCAR-3 ovarian
[36] = tested on: OVCAR-4 ovarian
[37] = tested on: OVCAR-5 ovarian
[38] = tested on: OVCAR-8 ovarian
[39] = tested on: PC-3 prostate
[40] = tested on: RPMI-8226 leukemia
[41] = tested on: RXF 393 renal
[42] = tested on: SF-268 CNS
[43] = tested on: SF-295 CNS
[44] = tested on: SF-539 CNS
[45] = tested on: SK-MEL-2 melanoma
[46] = tested on: SK-MEL-28 melanoma
[47] = tested on: SK-MEL-5 melanoma
[48] = tested on: SK-OV-3 ovarian
[49] = tested on: SN12C renal
[50] = tested on: SNB-19 CNS
[51] = tested on: SNB-75 CNS
[52] = tested on: SR leukemia
[53] = tested on: SW-620 colon
[54] = tested on: T-47D breast
[55] = tested on: TK-10 renal
[56] = tested on: U251 CNS
[57] = tested on: UACC-257 melanoma
[58] = tested on: UACC-62 melanoma
[59] = tested on: UO-31 renal

## COc1ccc(CNC(=O)[C@H](Cc2ccc(O)cn2)NC(C)=O)cc1OC
[1]
  TGI: > 100 µM
[2]
  TGI: > 100 µM
[3]
  TGI: > 100 µM
[4]
  TGI: > 100 µM
[5]
  TGI: > 100 µM
[6]
  TGI: > 100 µM
[7]
  TGI: > 100 µM
[8]
  TGI: > 100 µM
[9]
  TGI: > 100 µM
[10]
  TGI: > 100 µM
[11]
  TGI: > 100 µM
[12]
  TGI: > 100 µM
[13]
  TGI: > 100 µM
[14]
  TGI: > 100 µM
[15]
  TGI: > 100 µM
[16]
  TGI: > 100 µM
[17]
  TGI: > 100 µM
[18]
  TGI: > 100 µM
[19]
  TGI: > 100 µM
[20]
  TGI: > 100 µM
[21]
  TGI: > 100 µM
[22]
  TGI: > 100 µM
[23]
  TGI: > 100 µM
[24]
  TGI: > 100 µM
[25]
  TGI: > 100 µM
[26]
  TGI: > 100 µM
[27]
  TGI: > 100 µM
[28]
  TGI: > 100 µM
[29]
  TGI: > 100 µM
[30]
  TGI: > 100 µM
[31]
  TGI: > 100 µM
[32]
  TGI: > 100 µM
[33]
  TGI: > 100 µM
[34]
  TGI: > 100 µM
[35]
  TGI: > 100 µM
[36]
  TGI: > 100 µM
[37]
  TGI: > 100 µM
[38]
  TGI: > 100 µM
[39]
  TGI: > 100 µM
[40]
  TGI: > 100 µM
[41]
  TGI: > 100 µM
[42]
  TGI: > 100 µM
[43]
  TGI: > 100 µM
[44]
  TGI: > 100 µM
[45]
  TGI: > 100 µM
[46]
  TGI: > 100 µM
[47]
  TGI: > 100 µM
[48]
  TGI: > 100 µM
[49]
  TGI: > 100 µM
[50]
  TGI: > 100 µM
[51]
  TGI: > 100 µM
[52]
  TGI: > 100 µM
[53]
  TGI: > 100 µM
[54]
  TGI: > 100 µM
[55]
  TGI: > 100 µM
[56]
  TGI: > 100 µM
[57]
  TGI: > 100 µM
[58]
  TGI: > 100 µM
[59]
  TGI: > 100 µM

## CCCCC(=O)Nc1ccc2cc(C(=O)OC)c(Cl)nc2n1
[1]
  TGI: > 100 µM
[2]
  TGI: > 100 µM
[3]
  TGI: > 100 µM
[4]
  TGI: > 100 µM
[5]
  TGI: > 100 µM
[6]
  TGI: > 100 µM
[7]
  TGI: > 100 µM
[8]
  TGI: > 45.3 µM
[9]
  TGI: 10.1 µM
[10]
  TGI: > 100 µM
[11]
  TGI: 52.7 µM
[12]
  TGI: > 100 µM
[13]
  TGI: > 100 µM
[14]
  TGI: 6.81 µM
[15]
  TGI: 20.6 µM
[16]
  TGI: > 100 µM
[17]
  TGI: 46.9 µM
[18]
  TGI: > 100 µM
[19]
  TGI: > 100 µM
[20]
  TGI: > 100 µM
[21]
  TGI: 10.1 µM
[22]
  TGI: > 100 µM
[23]
  TGI: > 100 µM
[24]
  TGI: > 100 µM
[25]
  TGI: > 100 µM
[26]
  TGI: > 100 µM
[27]
  TGI: > 100 µM
[28]
  TGI: > 100 µM
[29]
  TGI: > 100 µM
[30]
  TGI: > 100 µM
[31]
  TGI: > 100 µM
[32]
  TGI: > 100 µM
[33]
  TGI: > 100 µM
[34]
  TGI: > 100 µM
[35]
  TGI: 17.6 µM
[36]
  TGI: > 100 µM
[37]
  TGI: > 100 µM
[38]
  TGI: > 100 µM
[39]
  TGI: > 74.3 µM
[40]
  TGI: > 100 µM
[41]
  TGI: > 100 µM
[42]
  TGI: > 100 µM
[43]
  TGI: > 96.7 µM
[44]
  TGI: > 100 µM
[45]
  TGI: > 100 µM
[46]
  TGI: > 100 µM
[47]
  TGI: > 100 µM
[48]
  TGI: > 100 µM
[49]
  TGI: > 100 µM
[50]
  TGI: 38 µM
[51]
  TGI: > 100 µM
[52]
  TGI: > 100 µM
[53]
  TGI: > 100 µM
[54]
  TGI: > 72.5 µM
[55]
  TGI: > 100 µM
[56]
  TGI: > 78 µM
[57]
  TGI: > 100 µM
[58]
  TGI: > 100 µM
[59]
  TGI: 57.7 µM

## CN(CCCN(C)Cc1ccc(Cl)c(Cl)c1)CCN1CCCC1
[1]
  TGI: 31.6 µM
[2]
  TGI: 28.2 µM
[3]
  TGI: > 80.9 µM
[4]
  TGI: > 100 µM
[5]
  TGI: > 100 µM
[6]
  TGI: > 93.5 µM
[7]
  TGI: 24.6 µM
[8]
  TGI: 33 µM
[9]
  TGI: > 100 µM
[10]
  TGI: > 100 µM
[11]
  TGI: 11.8 µM
[12]
  TGI: > 54.2 µM
[13]
  TGI: > 88.4 µM
[14]
  TGI: > 100 µM
[15]
  TGI: 98.2 µM
[16]
  TGI: > 28.3 µM
[17]
  TGI: > 53.6 µM
[18]
  TGI: 32.2 µM
[19]
  TGI: > 62.8 µM
[20]
  TGI: 15 µM
[21]
  TGI: > 100 µM
[22]
  TGI: 41.2 µM
[23]
  TGI: 15.7 µM
[24]
  TGI: 30.9 µM
[25]
  TGI: 43.6 µM
[26]
  TGI: 37.3 µM
[27]
  TGI: 11.7 µM
[28]
  TGI: 15.8 µM
[29]
  TGI: 37.1 µM
[30]
  TGI: 55.6 µM
[31]
  TGI: > 100 µM
[32]
  TGI: 70.5 µM
[33]
  TGI: 37.1 µM
[34]
  TGI: > 100 µM
[35]
  TGI: > 100 µM
[36]
  TGI: > 100 µM
[37]
  TGI: > 86.3 µM
[38]
  TGI: > 100 µM
[39]
  TGI: > 100 µM
[40]
  TGI: 17.5 µM
[41]
  TGI: 67.9 µM
[42]
  TGI: > 93.5 µM
[43]
  TGI: 53.9 µM
[44]
  TGI: 45.1 µM
[45]
  TGI: 26.4 µM
[46]
  TGI: 4.6 µM
[47]
  TGI: 19.5 µM
[48]
  TGI: > 100 µM
[49]
  TGI: > 100 µM
[50]
  TGI: > 100 µM
[51]
  TGI: 81.7 µM
[52]
  TGI: 31.9 µM
[53]
  TGI: > 100 µM
[54]
  TGI: > 80.6 µM
[55]
  TGI: > 82.7 µM
[56]
  TGI: 47 µM
[57]
  TGI: 7.18 µM
[58]
  TGI: 3.67 µM
[59]
  TGI: 10 µM

## N=C(N)CCNC(=O)C1CCC(N)=N1 (stereo unspecified)
[1]
  TGI: > 95.7 µM
[2]
  TGI: 85.9 µM
[3]
  TGI: > 61.2 µM
[4]
  TGI: > 100 µM
[5]
  TGI: > 100 µM
[6]
  TGI: > 100 µM
[7]
  TGI: > 80.5 µM
[8]
  TGI: > 59 µM
[9]
  TGI: > 65.6 µM
[10]
  TGI: > 89.7 µM
[11]
  TGI: > 36.2 µM
[12]
  TGI: > 91 µM
[13]
  TGI: > 100 µM
[14]
  TGI: > 87.4 µM
[15]
  TGI: > 48.2 µM
[16]
  TGI: > 67.8 µM
[17]
  TGI: 65.5 µM
[18]
  TGI: > 84.5 µM
[19]
  TGI: > 100 µM
[20]
  TGI: > 100 µM
[21]
  TGI: > 100 µM
[22]
  TGI: > 100 µM
[23]
  TGI: 98.1 µM
[24]
  TGI: > 61.6 µM
[25]
  TGI: > 100 µM
[26]
  TGI: > 79.3 µM
[27]
  TGI: > 100 µM
[28]
  TGI: > 100 µM
[29]
  TGI: > 78.8 µM
[30]
  TGI: > 63.8 µM
[31]
  TGI: > 93.3 µM
[32]
  TGI: > 82.1 µM
[33]
  TGI: > 92.9 µM
[34]
  TGI: > 100 µM
[35]
  TGI: > 41.9 µM
[36]
  TGI: 81.3 µM
[37]
  TGI: > 96.6 µM
[38]
  TGI: > 100 µM
[39]
  TGI: > 64.6 µM
[40]
  TGI: > 100 µM
[41]
  TGI: > 94.4 µM
[42]
  TGI: > 93 µM
[43]
  TGI: > 86.2 µM
[44]
  TGI: > 43.2 µM
[45]
  TGI: > 78.7 µM
[46]
  TGI: > 100 µM
[47]
  TGI: > 61.9 µM
[48]
  TGI: > 69.3 µM
[49]
  TGI: 68.3 µM
[50]
  TGI: > 100 µM
[51]
  TGI: 60.4 µM
[52]
  TGI: > 100 µM
[53]
  TGI: > 100 µM
[54]
  TGI: > 59.7 µM
[55]
  TGI: > 90.4 µM
[56]
  TGI: > 100 µM
[57]
  TGI: > 81.1 µM
[58]
  TGI: > 100 µM
[59]
  TGI: > 80.1 µM
